# Source: ChEMBL document CHEMBL5614443, “Hybrids of 3-Hydroxypyridin-4(1H)-ones and Long-Chain 4-Aminoquinolines as Potent Biofilm Inhibitors of Pseudomonas aeruginosa Potentiate Tobramycin and Polymyxin B Activity” (J Med Chem, 2024)
# Activity calls are given as the source filed them. The calls are words filed in the database; no cut-off is given here.
# Key:
# [1] = test system: Pseudomonas aeruginosa; assay: Antibiofilm activity against Pseudomonas aeruginosa PAO1 assessed as inhibition of biofilm formation incubated for 24 hrs by crystal violet staining based analysis; format: functional, organism-based; details: PAO1, 24 h
# [2] = Inhibition of quorum sensing system in wildtype Pseudomonas aeruginosa PAO1 assessed as inhibition of pyocyanin production incubated for 24 hrs by absorbance based analysis
# [3] = test system: Pseudomonas aeruginosa; assay: Antibacterial activity against Pseudomonas aeruginosa PA14 assessed as inhibition of bacterial growth incubated for 24 hrs by CLSI protocol based method; format: functional, organism-based
# [4] = Inhibition of quorum sensing system in Pseudomonas aeruginosa PAO1 transfected with mini-ctx-lacZ reporter gene assessed as decrease in beta-galactosidase activity at 1.25 to 20 uM incubated for 6 hrs by Miller assay; details: dose 1.25-20 µM
# [5] = Inhibition of quorum sensing system in Pseudomonas aeruginosa PAO1 transfected with mini-ctx-rhlA-lacZ reporter gene assessed as decrease in beta-galactosidase activity incubated for 6 hrs by Miller assay; details: dose 1.25-20 µM
# [6] = test system: Pseudomonas aeruginosa; assay: Inhibition of motility in Pseudomonas aeruginosa PAO1 assessed as reduction in twitching movements at 50 uM incubated for 16 hrs by motility assay; format: functional, organism-based
# [7] = Metal chelating activity assessed as Fe3+ chelation by measuring iron chelation constant by fluorescence competition assay
# [8] = test system: Pseudomonas aeruginosa; assay: Antibacterial activity against Pseudomonas aeruginosa clinical isolate 0617 assessed as inhibition of bacterial growth incubated for 24 hrs by CLSI protocol based method; format: functional, organism-based
# [9] = test system: Pseudomonas aeruginosa; assay: Antibacterial activity against Pseudomonas aeruginosa clinical isolate 0808 assessed as inhibition of bacterial growth incubated for 24 hrs by CLSI protocol based method; format: functional, organism-based
# [10] = test system: Pseudomonas aeruginosa; assay: Antibacterial activity against Pseudomonas aeruginosa clinical isolate 1167 assessed as inhibition of bacterial growth incubated for 24 hrs by CLSI protocol based method; format: functional, organism-based
# [11] = test system: Pseudomonas aeruginosa; assay: Antibacterial activity against Pseudomonas aeruginosa clinical isolate 1074 assessed as inhibition of bacterial growth incubated for 24 hrs by CLSI protocol based method; format: functional, organism-based
# [12] = test system: Pseudomonas aeruginosa; assay: Antibacterial activity against Pseudomonas aeruginosa clinical isolate 1121 assessed as inhibition of bacterial growth incubated for 24 hrs by CLSI protocol based method; format: functional, organism-based
# [13] = test system: Pseudomonas aeruginosa; assay: Antivirulence activity in Pseudomonas aeruginosa clinical isolate 1121 assessed as reduction in elastase production at 10 uM incubated for 24 hrs by elastin-congo red dye based absorbance assay; format: functional, organism-based
# [14] = test system: Pseudomonas aeruginosa; assay: Antivirulence activity in Pseudomonas aeruginosa clinical isolate 1167 assessed as reduction in pyocyanin production at 10 uM incubated for 24 hrs by absorbance based analysis; format: functional, organism-based
# [15] = test system: Pseudomonas aeruginosa; assay: Antivirulence activity in Pseudomonas aeruginosa clinical isolate 1121 assessed as reduction in pyocyanin production at 10 uM incubated for 24 hrs by absorbance based analysis; format: functional, organism-based
# [16] = test system: Pseudomonas aeruginosa; assay: Antibiofilm activity against Pseudomonas aeruginosa clinical isolate 1167 assessed as reduction in biofilm content at 10 uM incubated for 24 hrs by crystal violet staining based analysis; format: functional, organism-based
# [17] = test system: Pseudomonas aeruginosa; assay: Antibiofilm activity against Pseudomonas aeruginosa clinical isolate 1121 assessed as reduction in biofilm content at 10 uM incubated for 24 hrs by crystal violet staining based analysis; format: functional, organism-based
# [18] = test system: Pseudomonas aeruginosa; assay: Synergistic antibacterial activity against Pseudomonas aeruginosa PAO1 assessed as reduction in cell viability at 10 to 50 uM incubated for 24 hrs in the presence of 1/2 MIC of polymyxin B by LB agar plate method; format: functional, organism-based; details: dose 10-50 µM
# [19] = test system: Pseudomonas aeruginosa; assay: Synergistic antibacterial activity against Pseudomonas aeruginosa PAO1 assessed as fold reduction in bacterial survival rate at 50 uM incubated for 24 hrs in presence of 1/2 MIC of tobramycin by LB agar plate method relative to tobramycin alone; format: functional
# [20] = test system: Pseudomonas aeruginosa; assay: Synergistic antibacterial activity against Pseudomonas aeruginosa PAO1 assessed as fold reduction in bacterial survival rate at 50 uM incubated for 24 hrs in presence of 1/2 MIC of […] by LB agar plate method relative to polymyxin B alone; format: functional
# [21] = test system: Pseudomonas aeruginosa; assay: Synergistic antibacterial activity against Pseudomonas aeruginosa PAO1 assessed as bacterial survival rate at 50 uM incubated for 24 hrs in presence of 1/2 MIC of tobramycin by LB agar plate method relative to control; format: functional
# [22] = test system: Pseudomonas aeruginosa; assay: Synergistic antibacterial activity against Pseudomonas aeruginosa PAO1 assessed as fold reduction in bacterial survival rate incubated for 24 hrs in presence of ciprofloxacin by LB agar plate method; format: functional
# [23] = test system: Pseudomonas aeruginosa; assay: Synergistic antibacterial activity against Pseudomonas aeruginosa PAO1 assessed as fold reduction in bacterial survival rate incubated for 24 hrs in presence of norfloxacin by LB agar plate method; format: functional
# [24] = test system: Pseudomonas aeruginosa; assay: Synergistic antibacterial activity against Pseudomonas aeruginosa PAO1 assessed as fold reduction in bacterial survival rate incubated for 24 hrs in presence of meropenem by LB agar plate method; format: functional
# [25] = test system: Pseudomonas aeruginosa; assay: Synergistic antibacterial activity against Pseudomonas aeruginosa PAO1 assessed as fold reduction in bacterial survival rate incubated for 24 hrs in presence of erythromycin by LB agar plate method; format: functional
# [26] = test system: Pseudomonas aeruginosa; assay: Synergistic antibacterial activity against Pseudomonas aeruginosa clinical isolate 1167 assessed as reduction in bacterial viability at 10 to 50 uM incubated for 24 hrs in presence of 1/4 MIC of tobramycin by LB agar plate method; format: functional, organism-based; details: dose 10-50 µM
# [27] = test system: Pseudomonas aeruginosa; assay: Synergistic antibacterial activity against Pseudomonas aeruginosa clinical isolate 1121 assessed as reduction in bacterial viability at 10 to 50 uM incubated for 24 hrs in presence of 1/4 MIC of tobramycin by LB agar plate method; format: functional, organism-based; details: dose 10-50 µM
# [28] = test system: Pseudomonas aeruginosa; assay: Synergistic antibacterial activity against Pseudomonas aeruginosa clinical isolate 1121 assessed as reduction in bacterial viability at 10 to 50 uM incubated for 24 hrs in presence of 1/8 MIC of tobramycin by LB agar plate method; format: functional, organism-based; details: dose 10-50 µM
# [29] = test system: Pseudomonas aeruginosa; assay: Synergistic antibacterial activity against Pseudomonas aeruginosa clinical isolate 1167 assessed as reduction in bacterial viability at 10 to 50 uM incubated for 24 hrs in presence of 1/8 MIC of polymyxin B by LB agar plate method; format: functional, organism-based; details: dose 10-50 µM
# [30] = test system: Pseudomonas aeruginosa; assay: Synergistic antibacterial activity against Pseudomonas aeruginosa clinical isolate 1121 assessed as fold reduction in bacterial viability at 50 uM incubated for 24 hrs in presence of 1/2 MIC of polymyxin B by LB agar plate method relative to polymyxin B alone; format: functional
# [31] = test system: Pseudomonas aeruginosa; assay: Synergistic antibacterial activity against Pseudomonas aeruginosa clinical isolate 1121 assessed as fold reduction in bacterial viability at 50 uM incubated for 24 hrs in presence of 1/2 MIC of tobramycin by LB agar plate method relative to tobramycin alone; format: functional
# [32] = Hemolytic activity in rabbit erythrocytes assessed as hemolysis rate at 200 uM incubated for 2 hrs by microplate reader analysis (reference value: 100 %); format: toxicity, cell-based, Oryctolagus cuniculus, Erythrocyte; details: read-out: Activity
# [33] = test system: Pseudomonas aeruginosa; assay: Antibacterial activity against Pseudomonas aeruginosa PAO1 infected in Caenorhabditis elegans assessed as worm survival at 10 uM by bright-field microscopic analysis (reference value: 24 hrs); format: functional
# [34] = test system: Pseudomonas aeruginosa; assay: Antibacterial activity against Pseudomonas aeruginosa PAO1 infected in Caenorhabditis elegans assessed as worm survival rate at 10 uM measured after 96 hrs in presence of polymyxin B at 1/2 MIC by bright field microscopic analysis relative to control; format: functional
# [35] = test system: Pseudomonas aeruginosa; assay: Induction of Fe3+ chelating activity in Pseudomonas aeruginosa PAO1 assessed as increase in pyoverdine production by measuring fold change at 20 uM incubated for 24 hrs by fluorescence microplate reader
smiles,measurement,setting,value
Cc1cc(=O)c(O)c(C(=O)NCCCCCCCCNc2ccnc3cc(Cl)ccc23)n1C.Cl,IC50,[1],5.8 µM
same,IC50,[2],6.9 µM
same,Activity,[3],inactive
same,inhibition,[4],inactive
same,inhibition,[5],Dose-Dependent Effect
same,inhibition,[6],Active
same,pFe3+,[7],20.6
same,Activity,[8],inactive
same,Activity,[9],inactive
same,Activity,[10],inactive
same,Activity,[11],inactive
same,Activity,[12],inactive
same,Activity,[13],Active
same,Activity,[14],Active
same,Activity,[15],Active
same,Activity,[16],Active
same,Activity,[17],Active
same,Activity,[18],Active
same,fold change (FC),[19],~60
same,fold change (FC),[20],~100
same,survival at 50 µM,[21],< 0.2%
same,fold change (FC),[22],<10
same,fold change (FC),[23],<10
same,fold change (FC),[24],<10
same,fold change (FC),[25],<10
same,Activity,[26],Active
same,Activity,[27],Active
same,Activity,[28],Active
same,Activity,[29],Active
same,fold change (FC),[30],15
same,fold change (FC),[31],15
same,"hemolysis at 2 h, 200 µM",[32],< 1.5%
same,Survival,[33],32 h
same,survival at 10 µM,[34],32.1%
same,fold change (FC),[35],10
